Where two headings read alike, the source gives them in different places.

This data set is described as follows: Solvent vapor pressure at 20° C. The source says: The solvents used to formulate these compositions, along with a few select physical properties of each solvent, are summarized in Table 2, below.

dibasic ester: the “Solvent Vapor Pressure at 20° C.” value (neat solvent, 20° C.) is 0.20 torr.

Regarding `CCCCOCCOCCO` [Diethylene Glycol Monobutyl Ether], under “neat solvent, 20° C.”, the “Solvent Vapor Pressure at 20° C.” value was 0.02 torr.

Turning to `CCC(C)OC(=O)CC(C)O` (stereo not shown) [2-butyl 3-hydroxybutyrate], the “Solvent Vapor Pressure at 20° C.” value was found to be 0.098 torr.

As to `CC(O)CC(=O)OC(C)C` (stereo not shown) [i-propyl 3-hydroxybutyrate, isopropyl 3-hydroxybutyrate], the “Solvent Vapor Pressure at 20° C.” value is listed as 0.17 torr.

As for `C=C(C)[C@H]1CC=C(C)CC1` [d-limonene], the “Solvent Vapor Pressure at 20° C.” value (neat solvent, 20° C.) came out at 1.5 torr.

As for `OCc1ccccc1` [Benzyl Alcohol], the “Solvent Vapor Pressure at 20° C.” value was 0.076 torr.

Turning to `CC(C)COC(=O)CC(C)O` (stereo not shown) [i-butyl 3-hydroxybutyrate], the “Solvent Vapor Pressure at 20° C.” value was 0.08 torr.

In the case of `CCOCCOCCO` [Diethylene Glycol Monoethyl Ether], the “Solvent Vapor Pressure at 20° C.” value turned out to be 0.12 torr.

On to `CCCCOCCO` [Ethylene glycol monobutyl ether], for which the “Solvent Vapor Pressure at 20° C.” value (neat solvent, 20° C.) is listed as 0.60 torr.

Turning to `CCCCOC(=O)CC(C)O` (stereo not shown) [n-butyl 3-hydroxybutyrate], the “Solvent Vapor Pressure at 20° C.” value stood at 0.06 torr.

The values above are taken from US9249378B2, “Aqueous cleaning compositions having enhanced properties” (Eastman Chemical Company, priority 2013, dated 2016).
